Test results reported in patent publication US5516790A, “Synthesis and application of alkyl-substituted dibenzofurans as antitumorigenic agents” (Texas A&M University System Technology Licensing Office, priority 1994, dated 1996).
Read-outs that look alike come from different tables or passages of the source.

Columns and labels:
estrogen receptor (ER) = test: Uterine estrogen receptor levels, hydroxyapatite assay (Example 8); type: in vivo, female Sprague-Dawley rats; conditions: run A
Procedure: A second group of animals was similarly treated with corn oil, TCDD, MCDF, or TCDD plus MCDF, all administered in corn oil at 10 ml/kg and terminated 72 hours later.
(§1) The animals were terminated by cervical dislocation. Livers were perfused with ice-cold TEDG buffer (10 mM Tris-HCl, 1.5 mM EDTA-4Na, 1 mM dithiothreitol, 10% glycerol (v/v), pH 7.4). Following perfusion in situ, livers were removed, weighed, and homogenized in ice-cold TEDG buffer. Uteri were also removed, weighed, and homogenized in ice-cold buffer. The homogenates were then centrifuged at 800×g ([…]) for 15 minutes and the nuclear pellets were stored at -80° C. The supernatants were further centrifuged at 180,000× g for 1.5 hours. The cytosolic supernatant was also stored at -80° C. Estrogen and progesterone receptor levels were determined within 7 days.
Estrogen (ER) and progesterone (PR) receptor levels were determined by the hydroxyapatite assay as described by Clark et al. (J. Steroid Biochem. 16:323-328, 1982) and incorporated herein by reference. […] Following the incubations, samples were counted and specific binding was calculated by subtraction of nonspecific from total binding. Assuming one steroid molecule binds to one estrogen/progesterone receptor, the number of moles of receptor can be calculated given the specific activity of the radioligand. The data presented in Tables 1 through 6 are means ± SD using at least four animals per treatment group. Significant differences were determined by analysis of variance.

female rat uterus = type: in vivo, female Sprague/Dawley rats
Procedure: TCDD or MCDF was co-administered with a second dose of estradiol and the animals were killed 48-hours later. A second group of animals was similarly treated with corn oil, TCDD, MCDF, or TCDD plus MCDF, all administered in corn oil at 10 ml/kg and terminated 72 hours later.
as §1, with “180,000×g” for “180,000× g”, “hour.” for “hours.”

160-kDa protein [1] = type: cell-based, human; conditions: for Protein Secretion, 160-kDa / Secreted 160-kDa protein: 2880 min
Procedure: (§2) On day 0, the media was removed and the cells were rinsed two times with PBS. […] The cells were allowed to incubate for 48 h. […] After 6 h, the media was removed, 10 μl was counted and the remaining media was used for analysis of secreted proteins.
(§3) The secreted proteins were analyzed by sodium dodecyl sulfate (SDS) polyacrylamide gel electrophoresis; 30 μl of the media was mixed with an equal volume of buffer containing SDS, β-mercaptoethanol, glycerol, Tris and bromophenol blue. The samples were heated for 2 minutes in a boiling water bath and 50 μl of each sample was loaded onto a 1.5 mm thick 12% acrylamide slab gel (containing 0.075% bisacrylamide) with a 3% stacking gel (containing 0.15% bisacrylamide). The gels were run at […] overnight and processed for fluorography (using Enhance: Dupont) and exposed to Kodak X-OMAT film for 10 days at -80° C. The molecular weights of the proteins were estimated by their mobility relative to a set of standard proteins with known molecular weights.
(§4) The incorporation of ^35 S-methionine into the 34-kDa, 52-kDa and 160-kDa proteins was estimated by scanning the films using a Zeineh Soft Laser Scanning Densitometer (model SLR-20/10) from Biomedical Instruments,Inc. The percentage of the area of the scans due to the particular protein was then compared between the experimental and control samples and the results are presented as means ± SD for at least three samples per treatment group.

34-kDa protein = type: cell-based, human; conditions: for Protein Secretion, 34-kDa / Secreted 34-kDa protein: 2880 min
Procedure: as §2, §3, §4

52-kDa protein = type: cell-based, human
Procedure: as §2, §3, §4

[2] = tested on: MCF-7 human breast cancer cells; test: Growth of MCF-7 human breast cancer cells; type: cell-based; conditions: MCDF
AHH and EROD induction [3] = test: TCDD antagonism / Ah receptor agonist activity (AHH and EROD induction)
estrogen receptor [4] = test: Uterine and hepatic estrogen receptor levels (literature); type: in vivo, rat; conditions: in comparison to control test animals, rats and mice
uterus [5] = test: Uterine wet weight / uterotrophic effects (literature, summary); type: in vivo, rat; conditions: rats, in comparison to control
uterus [6] = test: Uterine wet weights in mice (summary); type: in vivo; conditions: in comparison to control
160-kDa protein [7] = conditions: Biegel and Safe, 1990; cited from earlier work
nuclear ER = conditions: cited from earlier work
AHH and EROD induction [8] = conditions: previous studies; cited from earlier work
estrogen receptor [9] = conditions: cited from earlier work
progesterone receptor = conditions: cited from earlier work
EGF receptor = conditions: cited from earlier work
uterus [10] = conditions: cited from earlier work
Toxicity = conditions: in vivo
[11] = tested on: tissue plasminogen activator; conditions: MCF-7 human breast cancer cells; cited from earlier work
[12] = 150 μmol/kg + E-2 (2 × 10 μg/rat)
[13] = compound alone, 150 μmol/kg (17β-estradiol: 2 × 10 μg/rat)
[14] = 17β-estradiol (1 nM) + TCDD 0.0001 nM
[15] = 17β-estradiol (1 nM) + TCDD 0.001 nM
[16] = 17β-estradiol (1 nM) + TCDD 0.01 nM
[17] = 17β-estradiol (1 nM) + TCDD 0.1 nM

Cc1cc(Cl)cc2c1oc1cc(Cl)cc(Cl)c12 [MCDF, 6-methyl 1,3,8-trichlorodibenzofuran]
Estrogen Receptor Levels, Cytosolic (estrogen receptor (ER); [12]): 78.9 ± 79.1 fmol/mg protein
Estrogen Receptor Levels, Nuclear (estrogen receptor (ER); [12]): 43.3 ± 73.4 fmol/mg protein
Estrogen Receptor Levels, Cytosolic (estrogen receptor (ER); [13]): 55.1 ± 0.9 fmol/mg protein
Estrogen Receptor Levels, Nuclear (estrogen receptor (ER); [13]): 49.3 ± 10.2 fmol/mg protein
uterine wet weights compared to corn oil treated animals (female rat uterus; MCDF alone): significantly decreased
estradiol induced increase in uterine wet weight (female rat uterus; co-treated animals): partially inhibited
Uterine Wet Weight (female rat uterus; cotreatment with E-2): 0.255 ± 0.031 % body wt
Uterine Wet Weight (female rat uterus; rat, in vivo): 0.090 ± 0.113 % body wt
Protein Secretion, 160-kDa (160-kDa protein [1]; 17β-estradiol + MCDF): 76 % of Control
17β-estradiol-induced secretion of the 160-kDa protein (160-kDa protein [1]; MCDF): inhibits
Protein Secretion, 160-kDa (160-kDa protein [1]; MCDF alone (100 nM)): 72 % of Control
Protein Secretion, 34-kDa (34-kDa protein; 17β-estradiol + MCDF): 78 % of Control
17β-estradiol-induced secretion of the 34-kDa protein (34-kDa protein; MCDF): inhibits
Protein Secretion, 34-kDa (34-kDa protein; MCDF alone (100 nM)): 80 % of Control
17β-estradiol-induced secretion of the 52-kDa protein (52-kDa protein; MCDF): inhibits
17β-estradiol-induced growth of MCF-7 cells [2]: inhibits
agonist for Ah receptor mediated response (AHH and EROD induction [3]): poor agonist
nuclear and cytosolic hepatic and uterine estrogen receptors (estrogen receptor [4]): decreases
uterine wet weights (uterus [5]): decreases
uterine wet weights (uterus [6]): decreases
17β-estradiol-induced secretion of the 160-kDa protein (160-kDa protein [7]): inhibits
17β-estradiol-induced accumulation of nuclear ER levels in MCF-7 cells (nuclear ER): inhibits
antagonist to the activities of TCDD (AHH and EROD induction [8]): antagonist
upregulation of uterine nuclear and cytosolic estrogen receptor levels by 17β-estradiol (estrogen receptor [9]; rat, in vivo): inhibits
uterine and hepatic cytosolic and nuclear estrogen receptor levels (estrogen receptor [9]; rat, in vivo): dose response decrease
upregulation of uterine nuclear and cytosolic progesterone receptor levels by 17β-estradiol (progesterone receptor; rat, in vivo): inhibits
uterine and hepatic cytosolic and nuclear progesterone receptor levels (progesterone receptor; rat, in vivo): dose response decrease
17β-estradiol-induced increased EGF receptor binding and mRNA levels (EGF receptor): inhibits
17β-estradiol-induced increases in rat uterine wet weight (uterus [10]): active as an antiestrogen
uterotrophic effects of 17β-estradiol (uterus [10]; rat, in vivo): inhibits
toxicity (Toxicity): low toxicity
toxicity of amounts giving antiestrogenic effects (Toxicity): nontoxic

Clc1cc2c(cc1Cl)Oc1cc(Cl)c(Cl)cc1O2 [TCDD, 2,3,7,8-tetrachloridibenzo-p-dioxin]
Uterine Wet Weight (female rat uterus; compound alone: TCDD 0.256 or MCDF 100 μmol/kg, or estradiol): 0.086 ± 0.011 % body wt
Uterine Wet Weight (female rat uterus; cotreatment with E-2): 0.245 ± 0.026 % body wt
secretion of the 160-kDa protein (160-kDa protein [1]; 10 nM TCDD alone): did not significantly affect
Secreted 160-kDa protein (160-kDa protein [1]; [14]): 321 ± 29.0% of the values for control
Secreted 160-kDa protein (160-kDa protein [1]; [15]): 167 ± 31.3% of the values for control
Secreted 160-kDa protein (160-kDa protein [1]; [16]): 127 ± 21.0% of the values for control
Secreted 160-kDa protein (160-kDa protein [1]; [17]): 94.3 ± 5.23% of the values for control
Secreted 160-kDa protein (160-kDa protein [1]; TCDD alone, 0.0001 nM): 97.4 ± 2.73% of the values for control
Secreted 160-kDa protein (160-kDa protein [1]; TCDD alone, 0.001 nM): 94.3 ± 3.00% of the values for control
Secreted 160-kDa protein (160-kDa protein [1]; TCDD alone, 0.01 nM): 90.4 ± 17.2% of the values for control
Secreted 160-kDa protein (160-kDa protein [1]; TCDD alone, 0.1 nM): 92.8 ± 5.16% of the values for control
hormone-induced secretion of the 160-kDa protein (160-kDa protein [1]; TCDD plus 17β-estradiol): significantly inhibited
secretion of the 34-kDa protein (34-kDa protein; 10 nM TCDD alone): did not significantly affect
Secreted 34-kDa protein (34-kDa protein; [14]): 255 ± 37.8% of the values for control
Secreted 34-kDa protein (34-kDa protein; [15]): 151 ± 20.7% of the values for control
Secreted 34-kDa protein (34-kDa protein; [16]): 94.2 ± 24.0% of the values for control
Secreted 34-kDa protein (34-kDa protein; [17]): 94.9 ± 11.4% of the values for control
Secreted 34-kDa protein (34-kDa protein; TCDD alone, 0.0001 nM): 86.5 ± 8.56% of the values for control
Secreted 34-kDa protein (34-kDa protein; TCDD alone, 0.001 nM): 95.2 ± 12.8% of the values for control
Secreted 34-kDa protein (34-kDa protein; TCDD alone, 0.01 nM): 85.7 ± 11.9% of the values for control
Secreted 34-kDa protein (34-kDa protein; TCDD alone, 0.1 nM): 94.5 ± 133% of the values for control
hormone-induced secretion of the 34-kDa protein (34-kDa protein; TCDD plus 17β-estradiol): significantly inhibited
secretion of the 52-kDa protein (52-kDa protein; 10 nM TCDD alone): did not significantly affect
hormone-induced secretion of the 52-kDa protein (52-kDa protein; TCDD plus 17β-estradiol): significantly inhibited
immunoreactive ER protein (nuclear ER; concentration-dependent, antibodies to human ER): decrease in immunoreactive ER protein
levels of occupied nuclear ER complex (nuclear ER; cotreatment 10 nM TCDD plus [3H]-17β-estradiol): did not affect
occupied nuclear ER levels (nuclear ER; pretreatment with TCDD 6 or 12 hours prior to radiolabeled hormone): significant downregulation
estrogen mediated excretion of tissue plasminogen activator activity [11]: suppressed
constitutive and 17β-estradiol induced uterine and hepatic estrogen receptor levels (estrogen receptor [9]; female rat): decreased
constitutive and 17β-estradiol induced uterine and hepatic progesterone receptor levels (progesterone receptor; female rat): decreased
